Reference: patent publication US20240150368A1, “ULK INHIBITORS AND METHODS OF USE THEREOF” (Deciphera Pharmaceuticals, LLC, priority 2022, published 2024)

Experiments:
ULK1 kinase = target: T1, ULK1 kinase (Homo sapiens, UniProt O75385, E37A/K38A); experiment: Biochemical assay for ULK1 (coupled pyruvate kinase/lactate dehydrogenase assay); conditions: 1 mM ATP, 0.1 nM ULK1; read-out: ULK1 (inhibition of biochemical activity), IC50
T1 construct: (residues 1-283; ID NO: 1); purchased Beryllium
T1 sequence (O75385 1-283 E37A/K38A): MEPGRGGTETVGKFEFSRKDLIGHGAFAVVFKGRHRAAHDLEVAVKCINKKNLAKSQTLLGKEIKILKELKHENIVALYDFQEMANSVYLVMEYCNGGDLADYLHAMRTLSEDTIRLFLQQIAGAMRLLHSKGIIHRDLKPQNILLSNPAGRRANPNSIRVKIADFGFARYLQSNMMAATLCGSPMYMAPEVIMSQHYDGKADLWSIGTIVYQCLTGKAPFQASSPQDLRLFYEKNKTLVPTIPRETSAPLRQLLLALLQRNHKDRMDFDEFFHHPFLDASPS
Procedure: Biochemical Assay for ULK1 (SEQ. ID NO: 1)
Activity of ULK1 kinase was determined spectroscopically using a coupled pyruvate kinase/lactate dehydrogenase assay that continuously monitors the ATP hydrolysis-dependent oxidation of NADH (e.g., Schindler et al. Science (2000) 289: 1938-1942). Assays were conducted in 384-well plates (100 μL final volume) using 0.1 nM ULK1 (from Beryllium), 0.075 mM peptide substrate (YANWLAASIYLDGKKK), 1.5 units pyruvate kinase, 2.1 units lactate dehydrogenase, 1 mM phosphoenol pyruvate, 0.28 mM NADH and 1 mM ATP in assay buffer (100 mM Tris, pH 7.5, 15 mM MgCl2, 0.5 mM DTT, 0.004% (w/v) BSA, and 0.004% Triton X-100). Inhibition of ULK1 was measured by adding serial diluted test compound (final assay concentration of 1% DMSO). A decrease in absorption at 340 nm was monitored continuously for 6 h at 30° C. on a multi-mode microplate reader (BioTek). The reaction rate was calculated using the 2-3 h time frame. The reaction rate at each concentration of compound was converted to percent inhibition using controls (i.e., reaction with no test compound and reaction with a known inhibitor) and IC50 values were calculated using software routines in Prism (GraphPad software).

ULK2 kinase = target: T2, ULK2 kinase (Homo sapiens, UniProt Q8IYT8); experiment: Biochemical assay for ULK2 (coupled pyruvate kinase/lactate dehydrogenase assay); conditions: 1 mM ATP, 1 nM ULK2; read-out: ULK2 (inhibition of biochemical activity), IC50
T2 construct: (residues 1-306 with N-terminal GST and His tag; ID NO: 2); purchased Signal Chem U02-11G
T2 sequence (Q8IYT8 with tags, fused parts or gaps): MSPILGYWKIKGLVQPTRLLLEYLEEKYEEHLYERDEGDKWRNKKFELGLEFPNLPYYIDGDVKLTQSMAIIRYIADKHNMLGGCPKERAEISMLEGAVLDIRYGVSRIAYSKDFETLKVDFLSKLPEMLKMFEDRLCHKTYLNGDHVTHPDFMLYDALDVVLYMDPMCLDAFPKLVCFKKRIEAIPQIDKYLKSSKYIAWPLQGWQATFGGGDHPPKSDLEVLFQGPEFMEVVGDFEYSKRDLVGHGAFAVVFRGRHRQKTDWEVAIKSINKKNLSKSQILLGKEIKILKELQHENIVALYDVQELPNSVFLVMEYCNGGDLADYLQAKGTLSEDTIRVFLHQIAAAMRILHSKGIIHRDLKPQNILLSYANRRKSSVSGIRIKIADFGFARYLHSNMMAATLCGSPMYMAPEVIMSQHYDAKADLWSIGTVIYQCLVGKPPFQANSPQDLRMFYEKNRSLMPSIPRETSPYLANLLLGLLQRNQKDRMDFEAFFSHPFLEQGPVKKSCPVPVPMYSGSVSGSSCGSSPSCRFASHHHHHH
Procedure: Biochemical Assay for ULK2 (SEQ. ID NO: 2)
Activity of ULK2 kinase was determined spectroscopically using a coupled pyruvate kinase/lactate dehydrogenase assay that continuously monitors the ATP hydrolysis-dependent oxidation of NADH (e.g., Schindler et al. Science (2000) 289: 1938-1942). Assays were conducted in 384-well plates (100 μL final volume) using 1 nM ULK2 (Signal Chem U02-11G), 200 μM ULKtide, 1.5 units pyruvate kinase, 2.1 units lactate dehydrogenase, 1 mM phosphoenol pyruvate, 0.28 mM NADH and 1 mM ATP in assay buffer (100 mM Tris, pH 7.5, 15 mM MgCl2, 0.5 mM DTT, 0.1% octyl-glucoside, 0.002% (w/v) BSA, and 0.002% Triton X-100). Inhibition of ULK2 was measured by adding serial diluted test compound (final assay concentration of 1% DMSO). A decrease in absorption at 340 nm was monitored continuously for 6 h at 30° C. on a multi-mode microplate reader (BioTek). The reaction rate was calculated using the 2-3 h time frame. The reaction rate at each concentration of compound was converted to percent inhibition using controls (i.e., reaction with no test compound and reaction with a known inhibitor) and IC50 values were calculated by fitting a four-parameter sigmoidal curve to the data using Prism (GraphPad software).

Row | Compound | IC50 (ULK1 kinase) | IC50 (ULK2 kinase)
1 | CC/C(Nc1ccc(N2CCN(C)CC2)cc1)=C1/C(=O)Nc2ccc(C(=O)NOC)cc21 [Example 10] | 100 to 500 nM | –
2 | CC/C(Nc1cnn(C2CCN(C(C)C)CC2)c1)=C1/C(=O)Nc2ccc(C(=O)N3CCCO3)cc21 [Example 12] | 100 to 500 nM | –
3 | CC/C(Nc1cnn(C2CCN(C(C)C)CC2)c1)=C1/C(=O)Nc2ccc(C(=O)NC(C)C)cc21 [Example 17] | 10 to 100 nM | 100 to 500 nM
4 | CC/C(Nc1cnn(C2CCN(C(C)C)CC2)c1)=C1/C(=O)Nc2ccc(C(=O)N3CCOCC3)cc21 [Example 20] | > 500 nM | –
5 | CC/C(Nc1cnn(C2CCN(C(C)C)CC2)c1)=C1/C(=O)Nc2ccc(C(=O)NC3COC3)cc21 [Example 25] | 100 to 500 nM | > 500 nM
6 | C/C(Nc1cnn(C2CCN(C(C)C)CC2)c1)=C1/C(=O)Nc2ccc(C(=O)NC[C@H]3CCCO3)cc21 [Example 45] | ≤ 10 nM | –
7 | CC/C(Nc1cnn(C2CCN(C(C)C)CC2)c1)=C1/C(=O)Nc2ccc(C(=O)NCCc3cnn(C)c3)cc21 [Example 49] | 100 to 500 nM | –
8 | CC/C(Nc1cnn(C2CCN(C(C)C)CC2)c1)=C1/C(=O)Nc2ccc(C(=O)NCc3cnn(C)c3)cc21 [Example 50] | 100 to 500 nM | –
9 | CC/C(Nc1cnn(C2CCN(C(C)C)CC2)c1)=C1/C(=O)Nc2ccc(C(=O)NCC3(C)CCCO3)cc21 (stereo not shown) [Example 56] | 10 to 100 nM | 100 to 500 nM
10 | CC/C(Nc1cnn(C2CCN(C(C)C)CC2)c1)=C1/C(=O)Nc2ccc(C(=O)NCC(=O)N3CCCC3)cc21 [Example 57] | 100 to 500 nM | –
11 | CC/C(Nc1cnn(C2CCN(C(C)C)CC2)c1)=C1/C(=O)Nc2ccc(C(=O)NCCC(=O)N(C)C)cc21 [Example 59] | 100 to 500 nM | –
12 | CC/C(Nc1cnn(C2CCN(C(C)C)CC2)c1)=C1/C(=O)Nc2ccc(C(=O)N3CCCC3)cc21 [Example 81] | > 500 nM | –
13 | CC/C(Nc1cnn(C2CNC2)c1)=C1/C(=O)Nc2ccc(C(=O)NC[C@H]3CCCO3)cc21 [Example 96] | ≤ 10 nM | 10 to 100 nM
14 | CC/C(Nc1cc(C(C)C)ccn1)=C1/C(=O)Nc2ccc(C(=O)NCC(F)(F)F)cc21 [Example 97] | 100 to 500 nM | 10 to 100 nM
15 | CC/C(Nc1cn(C)nc1C)=C1/C(=O)Nc2ccc(C(=O)NCC(F)(F)F)cc21 [Example 115] | > 500 nM | > 500 nM
16 | CC/C(Nc1cnn2c1CCC2)=C1/C(=O)Nc2ccc(C(=O)NCC(F)(F)F)cc21 [Example 121] | > 500 nM | > 500 nM
17 | CC/C(Nc1cnn(C(C)C)c1)=C1/C(=O)Nc2ccc(C(=O)NC(C)C)cc21 [Example 132] | 100 to 500 nM | > 500 nM
18 | CC/C(Nc1cnn(C(C)C)c1)=C1/C(=O)Nc2cc(Cl)c(C(=O)NCC(F)(F)F)cc21 [Example 141] | 100 to 500 nM | 100 to 500 nM
19 | CC/C(Nc1nc(C)co1)=C1/C(=O)Nc2ccc(C(=O)NCC(F)(F)F)cc21 [Example 143] | 100 to 500 nM | > 500 nM
20 | CC/C(Nc1nnc(C)o1)=C1/C(=O)Nc2ccc(C(=O)NCC(C)(C)F)cc21 [Example 146] | 100 to 500 nM | 100 to 500 nM
21 | CC/C(Nc1cnn(C(C)C)c1)=C1/C(=O)Nc2ccc(C(=O)N3CC[C@@H](C(F)(F)F)C3)cc21 [Example 150] | 100 to 500 nM | > 500 nM
22 | CC/C(Nc1ncc(C)o1)=C1/C(=O)Nc2ccc(C(=O)NCC(F)(F)F)cc21 [Example 155] | 10 to 100 nM | 100 to 500 nM
23 | CC/C(Nc1cnn(C(C)C)c1)=C1/C(=O)Nc2ccc(C(=O)NCC3(OC)CC3)cc21 [Example 163] | 10 to 100 nM | 100 to 500 nM
24 | CC/C(Nc1cnn(C(C)C)c1)=C1/C(=O)Nc2ncc(C(=O)NCC(C)(C)F)cc21 [Example 170] | 100 to 500 nM | 100 to 500 nM
25 | CC/C(Nc1cnn(C(C)C)c1)=C1/C(=O)Nc2ncc(C(=O)NCC3(F)CC3)cc21 [Example 172] | 10 to 100 nM | 100 to 500 nM
26 | CC/C(Nc1cnn(C(C)C)c1)=C1/C(=O)Nc2ccc(C(=O)CN(C)C)cc21 [Example 176] | > 500 nM | > 500 nM
27 | CC/C(Nc1cncc(C(C)C)c1)=C1/C(=O)Nc2ccc(C(=O)NCC(F)(F)F)cc21 [Example 182] | > 500 nM | > 500 nM
28 | CC/C(Nc1cnn(C(C)C)c1)=C1/C(=O)Nc2ccc(C(N)=O)cc21 [Example 183] | 10 to 100 nM | 10 to 100 nM

Further lines, results first:

Row | IC50 (ULK1 kinase) | IC50 (ULK2 kinase) | Compound
29 | 100 to 500 nM | – | CC/C(Nc1cnn(C2CCN(C(C)C)CC2)c1)=C1/C(=O)Nc2ccc(C(=O)NC)cc21 [Example 13]
30 | 100 to 500 nM | – | CCNC(=O)c1ccc2c(c1)/C(=C(\CC)Nc1cnn(C3CCN(C(C)C)CC3)c1)C(=O)N2 [Example 14]
31 | 10 to 100 nM | – | CC/C(Nc1cnn(C2CCN(C(C)C)CC2)c1)=C1/C(=O)Nc2ccc(C(=O)NCC3COC3)cc21 [Example 18]
32 | 10 to 100 nM | 10 to 100 nM | CC/C(Nc1cnn(C2CCN(C(C)C)CC2)c1)=C1/C(=O)Nc2ccc(C(=O)NC[C@@H]3CCCO3)cc21 [Example 19]
33 | 10 to 100 nM | – | CC/C(Nc1cnn(C2CCN(C(C)C)CC2)c1)=C1/C(=O)Nc2ccc(C(=O)NOC)cc21 [Example 22]
34 | 10 to 100 nM | – | COCCNC(=O)c1ccc2c(c1)/C(=C(\C)Nc1cnn(C3CCN(C(C)C)CC3)c1)C(=O)N2 [Example 23]
35 | 100 to 500 nM | > 500 nM | CC/C(Nc1ccn(C(C)C)n1)=C1/C(=O)Nc2ccc(C(=O)NCC(F)(F)F)cc21 [Example 99]
36 | 10 to 100 nM | 100 to 500 nM | CC/C(Nc1cnn(C(C)C)n1)=C1/C(=O)Nc2ccc(C(=O)NCC(F)(F)F)cc21 [Example 110]
37 | 100 to 500 nM | 100 to 500 nM | CC/C(Nc1ccc(C(C)C)nc1)=C1/C(=O)Nc2ccc(C(=O)NCC(F)(F)F)cc21 [Example 111]
38 | 10 to 100 nM | 100 to 500 nM | CC/C(Nc1cnn(C(C)C)c1)=C1/C(=O)Nc2ccc(C(=O)N[C@@H](C)C(F)(F)F)cc21 [Example 120]
39 | 10 to 100 nM | 100 to 500 nM | CC/C(Nc1cnn(C(C)C)c1)=C1/C(=O)Nc2ccc(C(=O)N(C)C[C@H]3CCCO3)cc21 [Example 129]
40 | 100 to 500 nM | 100 to 500 nM | CC/C(Nc1cnn(C(C)C)c1)=C1/C(=O)Nc2ccc(C(=O)NC3CC3)cc21 [Example 131]
41 | 100 to 500 nM | > 500 nM | CC/C(Nc1cnn(C(C)C)c1)=C1/C(=O)Nc2ccc(C(=O)NC)cc21 [Example 133]
42 | 100 to 500 nM | – | CC/C(Nc1cnn(C2CCN(C(C)C)CC2)c1)=C1/C(=O)Nc2ccc(C(=O)N(C)OC)cc21 [Example 139]
43 | 10 to 100 nM | 100 to 500 nM | CC/C(Nc1cnn(C(C)C)c1)=C1/C(=O)Nc2ccc(C(=O)N3CC[C@H](C(F)(F)F)C3)cc21 [Example 151]
44 | > 500 nM | > 500 nM | CC/C(Nc1cnn(C(C)C)c1)=C1/C(=O)Nc2ccc(C(=O)NCCN3CCC3)cc21 [Example 162]
45 | ≤ 10 nM | 10 to 100 nM | CC/C(Nc1cnn(C(C)C)c1)=C1/C(=O)Nc2ccc(C(=O)NCCC(C)(C)F)cc21 [Example 164]
46 | ≤ 10 nM | ≤ 10 nM | CC/C(Nc1cnn(C2CCC2)c1)=C1/C(=O)Nc2ccc(C(=O)NCC(C)(C)F)cc21 [Example 165]
47 | 100 to 500 nM | 100 to 500 nM | CC/C(Nc1cnn(C(C)C)c1)=C1/C(=O)Nc2ccc(C(=O)NC(C)(C)CC(F)(F)F)cc21 [Example 167]
48 | 100 to 500 nM | 100 to 500 nM | CC/C(Nc1cnn(C(C)C)c1)=C1/C(=O)Nc2ncc(C(=O)NCC(F)(F)F)cc21 [Example 171]
49 | ≤ 10 nM | 100 to 500 nM | CC/C(Nc1cnn(C(C)C)c1)=C1/C(=O)Nc2ccc(C(=O)N(CC(F)(F)F)C3CC3)cc21 [Example 175]
50 | > 500 nM | > 500 nM | CC/C(Nc1cnn(C(C)C)c1)=C1/C(=O)Nc2ccc(C(=O)Nc3cnn(CC(F)(F)F)c3)cc21 [Example 178]
